The values that follow come from US20250332266A1, “COMPOUNDS FOR THE DEGRADATION OF EGFR KINASE” (BeiGene Switzerland GmbH, priority 2022, published 2025).

Molecules are shown by their SMILES.

Assay [1] addresses EGFR Del19/T790M/C797S (H1975-clone #28) (Homo sapiens, UniProt P00533, T790M/C797S, form not given). Kind of assay: EGFR degradation, HTRF total-EGFR assay, H1975-clone #28 (DTC). The assay is classed as cell-based. Conditions: H1975-clone #28 Del19/T790M/C797S, 16 h treatment. The gist of the method: (§1)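 H1975 clones with endogenous EGFR knocked out and homozygous exogenous EGFR mutants (#28 Del19/T790M/C797S; #25 L858R/T790M/C797S) treated 16 h at 37 °C, 8 doses, 5-fold from 10 μM, 0.2% DMSO. Total EGFR measured by HTRF on lysates, normalised to DMSO controls; DC50 and Dmax from curve fit.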
(In general: Time-resolved FRET reads energy transfer from a long-lived donor to a nearby acceptor.)

The target in assay [2] is T1, EGFR L858R/T790M/C797S (H1975-clone #25) (Homo sapiens, UniProt P00533, C797S/L858R/T790M).
T1 construct: expressed in transfected cells; host or cells: H1975 (clone #25), lentiviral transduction, endogenous EGFR knocked out
T1 sequence (P00533 25-1210 T790M/C797S/L858R): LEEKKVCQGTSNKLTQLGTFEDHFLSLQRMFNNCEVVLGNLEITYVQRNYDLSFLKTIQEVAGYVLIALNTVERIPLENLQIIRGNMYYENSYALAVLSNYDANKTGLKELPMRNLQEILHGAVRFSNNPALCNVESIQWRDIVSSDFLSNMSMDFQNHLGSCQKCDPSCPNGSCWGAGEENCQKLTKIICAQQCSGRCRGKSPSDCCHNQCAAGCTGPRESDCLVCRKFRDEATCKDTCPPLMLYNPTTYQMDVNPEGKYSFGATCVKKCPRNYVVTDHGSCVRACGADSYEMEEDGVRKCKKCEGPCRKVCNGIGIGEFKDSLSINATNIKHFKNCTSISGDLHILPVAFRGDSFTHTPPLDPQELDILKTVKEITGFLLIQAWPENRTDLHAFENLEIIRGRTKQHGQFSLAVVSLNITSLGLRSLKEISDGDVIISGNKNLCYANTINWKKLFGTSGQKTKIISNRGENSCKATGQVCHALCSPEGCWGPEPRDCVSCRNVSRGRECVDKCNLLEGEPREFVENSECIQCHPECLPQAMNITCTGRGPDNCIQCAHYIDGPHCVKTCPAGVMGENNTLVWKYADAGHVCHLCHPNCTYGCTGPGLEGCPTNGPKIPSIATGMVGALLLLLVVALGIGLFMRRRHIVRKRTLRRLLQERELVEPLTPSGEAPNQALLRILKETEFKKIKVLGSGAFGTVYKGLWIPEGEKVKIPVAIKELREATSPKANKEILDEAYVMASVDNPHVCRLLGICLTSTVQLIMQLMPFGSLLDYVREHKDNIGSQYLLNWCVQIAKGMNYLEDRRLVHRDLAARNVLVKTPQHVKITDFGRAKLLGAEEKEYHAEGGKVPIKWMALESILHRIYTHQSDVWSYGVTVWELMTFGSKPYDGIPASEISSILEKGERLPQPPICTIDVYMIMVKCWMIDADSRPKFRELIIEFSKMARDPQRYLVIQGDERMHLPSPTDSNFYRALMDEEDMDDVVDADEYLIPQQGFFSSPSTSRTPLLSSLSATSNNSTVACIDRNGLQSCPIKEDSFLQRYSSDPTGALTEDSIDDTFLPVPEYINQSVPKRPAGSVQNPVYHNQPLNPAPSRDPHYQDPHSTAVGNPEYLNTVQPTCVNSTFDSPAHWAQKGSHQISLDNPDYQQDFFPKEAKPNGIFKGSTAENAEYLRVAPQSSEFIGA
Kind of assay: EGFR degradation, HTRF total-EGFR assay, H1975-clone #25 (LTC). As to conditions: H1975-clone #25 L858R/T790M/C797S, 16 h treatment. The assay is classed as cell-based. The method, boiled down: as §1

Sequence of EGFR Del19/T790M/C797S (H1975-clone #28) (P00533 with tags, fused parts or gaps DEL746-750/T790M/C797S, form open): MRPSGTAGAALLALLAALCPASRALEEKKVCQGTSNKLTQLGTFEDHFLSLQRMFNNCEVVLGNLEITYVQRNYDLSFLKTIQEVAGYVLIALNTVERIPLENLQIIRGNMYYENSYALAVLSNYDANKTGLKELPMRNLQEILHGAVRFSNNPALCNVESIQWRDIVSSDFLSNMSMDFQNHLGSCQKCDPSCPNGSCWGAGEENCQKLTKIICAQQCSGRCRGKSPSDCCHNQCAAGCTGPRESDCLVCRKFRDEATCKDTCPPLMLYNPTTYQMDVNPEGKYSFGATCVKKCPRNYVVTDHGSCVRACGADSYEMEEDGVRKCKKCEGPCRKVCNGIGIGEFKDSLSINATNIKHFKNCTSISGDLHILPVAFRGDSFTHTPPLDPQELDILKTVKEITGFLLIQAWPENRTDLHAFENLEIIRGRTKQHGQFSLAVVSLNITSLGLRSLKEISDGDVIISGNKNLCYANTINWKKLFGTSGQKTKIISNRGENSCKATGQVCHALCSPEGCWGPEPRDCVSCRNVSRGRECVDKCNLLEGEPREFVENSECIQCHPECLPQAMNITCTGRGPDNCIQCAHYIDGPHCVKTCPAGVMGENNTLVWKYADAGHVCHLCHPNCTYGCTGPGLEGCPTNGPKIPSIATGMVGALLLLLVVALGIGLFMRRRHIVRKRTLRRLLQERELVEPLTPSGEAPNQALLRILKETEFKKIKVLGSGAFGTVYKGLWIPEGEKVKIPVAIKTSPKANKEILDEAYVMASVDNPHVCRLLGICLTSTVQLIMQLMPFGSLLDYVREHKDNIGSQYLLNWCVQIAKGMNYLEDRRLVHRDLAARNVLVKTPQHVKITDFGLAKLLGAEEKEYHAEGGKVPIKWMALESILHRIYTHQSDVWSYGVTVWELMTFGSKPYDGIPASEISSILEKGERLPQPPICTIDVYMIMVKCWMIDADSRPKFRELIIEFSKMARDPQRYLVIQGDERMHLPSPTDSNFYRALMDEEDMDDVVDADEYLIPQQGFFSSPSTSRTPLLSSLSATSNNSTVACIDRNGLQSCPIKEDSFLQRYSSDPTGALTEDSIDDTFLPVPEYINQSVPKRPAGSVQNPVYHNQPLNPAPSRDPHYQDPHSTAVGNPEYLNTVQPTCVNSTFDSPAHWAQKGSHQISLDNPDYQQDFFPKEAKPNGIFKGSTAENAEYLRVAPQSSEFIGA

For the compound `Cc1cc2cc(n1)-c1cnn(C)c1OC[C@H]1C[C@@H](CN3/C(=N/C2=O)Nc2ccc(N4CCN(C5CCN(c6cc(F)c([C@H]7CCC(=O)NC7=O)c(F)c6)CC5)C(=O)C4)cc23)C1` [Example 25, (R)-3-(4-(4-(4-((7^1s,7^3s,E)-1^1,2^6-dimethyl-3-oxo-5^2,5^3-dihydro-1^1H,5^1H-9-oxa-4-aza-5(2,1)-benzo[d]imidazola-2(2,4)-pyridina-1(4,5)-pyrazola-7(1,3)-cyclobutanacyclononaphane-5^6-yl)-2-oxopiperazin-1-yl)piperidin-1-yl)-2,6-difluorophenyl)piperine-2,6-dione], the “Degradation H1975 # 28 DTC” value in assay [1] came out at 89.9. Also, the “Degradation H1975 # 25-LTC” value in assay [2] is listed as 83.4.
For `Cc1cc2cc(n1)-c1cnn(C)c1OC[C@H]1C[C@@H](CN3/C(=N/C2=O)Nc2ccc(N4CCN([C@H]5CCN(c6cnc(C7CCC(=O)NC7=O)cc6C)C[C@H]5F)CC4)cc23)C1` (stereo partly drawn) [Example 134, 3-(5-((3R,4S)-4-(4-((7^1s,7^3R,E)-1^1,2^6-dimethyl-3-oxo-5^2,5^3-dihydro-1^1H,5′H-9-oxa-4-aza-5(2,1)-benzo[d]imidazola-2(2,4)-pyridina-1(4,5)-pyrazola-7(1,3)-cyclobutanacyclononaphane-5^6-yl)piperazin-1-yl)-3-fluoropiperidin-1-yl)-4-methylpyridin-2-yl)piperidine-2,6-dione], the “Degradation H1975 # 28 DTC” value in assay [1] was 89.6. The “Degradation H1975 # 25-LTC” value in assay [2] amounted to 92.0.
For `Cc1cc2cc(n1)-c1cnn(C)c1OC[C@H]1C[C@@H](CN3/C(=N/C2=O)Nc2ccc(N4CCN([C@@H]5CCN(c6ccc(C7CCC(=O)NC7=O)nc6C)C[C@H]5F)CC4)cc23)C1` (stereo partly drawn) [Example 57, 3-(5-((3R,4R)-4-(4-((7^1s,7^3S,E)-1^1,2^6-dimethyl-3-oxo-5^2,5^3-dihydro-1^1H,5^1H-9-oxa-4-aza-5(2,1)-benzo[d]imidazola-2(2,4)-pyridina-1(4,5)-pyrazola-7(1,3)-cyclobutanacyclononaphane-5^6-yl)piperazin-1-yl)-3-fluoropiperidin-1-yl)-6-methylpyridin-2-yl)piperidine-2,6-dione], the “Degradation H1975 # 28 DTC” value in assay [1] was 87.5. Besides, in assay [2], the “Degradation H1975 # 25-LTC” value is 89.9.
In the case of `Cc1cc2cc(n1)-c1cnn(C)c1OC[C@H]1C[C@@H](CN3/C(=N/C2=O)Nc2ccc(N4CCN(CC5CN(c6cc(F)c([C@H]7CCC(=O)NC7=O)c(F)c6)C5)CC4=O)cc23)C1` [Example 11, (R)-3-(4-(3-((4-((7^1s,7^3s,E)-1^1,2^6-dimethyl-3-oxo-5^2,5^3-dihydro-1^1H,5^1H-9-oxa-4-aza-5(2,1)-benzo[d]imidazola-2(2,4)-pyridina-1(4,5)-pyrazola-7(1,3)-cyclobutanacyclononaphane-5^6-yl)-3-oxopiperazin-1-yl)methyl)azetidin-1-yl)-2,6-difluorophenyl)piperidine-2,6-dione], in assay [1], the “Degradation H1975 # 28 DTC” value came out at 91.5. Further, the “Degradation H1975 # 25-LTC” value in assay [2] is recorded as 85.4.
On the same counts, the results for `Cc1cc2cc(n1)-c1cnn(C)c1OC[C@H]1C[C@@H](CN3/C(=N/C2=O)Nc2ccc(N4CCC(N5CCN(c6cnc(C7CCC(=O)NC7=O)cc6C)C[C@@H]5C)CC4)cc23)C1` (stereo partly drawn) [Example 110, 3-(5-((S)-4-(1-((7^1s,7^3R,E)-1^1,2^6-dimethyl-3-oxo-5^2,5^3-dihydro-1^1H,5^1H-9-oxa-4-aza-5(2,1)-benzo[d]imidazola-2(2,4)-pyridina-1(4,5)-pyrazola-7(1,3)-cyclobutanacyclononaphane-5^6-yl)piperidin-4-yl)-3-methylpiperazin-1-yl)-4-methylpyridin-2-yl)piperidine-2,6-dione] are 82.2 and 90.3.
With `Cc1cc2cc(n1)-c1cnn(C)c1OC[C@H]1C[C@@H](CN3/C(=N/C2=O)Nc2ccc(N4CCN(C5CCN(c6cnc(C7CCC(=O)NC7=O)cc6C)CC5)C[C@H]4C)cc23)C1` (stereo partly drawn) [Example 1, 3-(5-(4-((R)-4-((7^1s,7^3S,E)-1^1,2^6-dimethyl-3-oxo-5^2,5^3-dihydro-1^1H,5^1H-9-oxa-4-aza-5(2,1)-benzo[d]imidazola-2(2,4)-pyridina-1(4,5)-pyrazola-7(1,3)-cyclobutanacyclononaphane-5^6-yl)-3-methylpiperazin-1-yl)piperidin-1-yl)-4-methylpyridin-2-yl)piperidine-2,6-dione], in assay [1], the “Degradation H1975 # 28 DTC” value is 91.9. In addition, the “Degradation H1975 # 25-LTC” value in assay [2] is reported as 92.8.
As to `COC[C@@H]1CN(c2ccc3c(c2)N2C[C@H]4C[C@@H](COc5c(cnn5C)-c5cc(cc(C)n5)C(=O)/N=C/2N3)C4)CCN1C1CCN(c2cnc(C3CCC(=O)NC3=O)cc2C)CC1` (stereo partly drawn) [Example 120, 3-(5-(4-((S)-4-((7^1s,7^3R,E)-1^1,2^6-dimethyl-3-oxo-5^2,5^3-dihydro-1^1H,5^1H-9-oxa-4-aza-5(2,1)-benzo[d]imidazola-2(2,4)-pyridina-1(4,5)-pyrazola-7(1,3)-cyclobutanacyclononaphane-5^6-yl)-2-(methoxymethyl)piperazin-1-yl)piperidin-1-yl)-4-methylpyridin-2-yl)piperidine-2,6-dione], the “Degradation H1975 # 28 DTC” value in assay [1] came out at 82.4. Further, the “Degradation H1975 # 25-LTC” value in assay [2] amounted to 83.1.
On the same counts, the results for `COC[C@@H]1CN(c2ccc3c(c2)N2C[C@H]4C[C@@H](COc5c(cnn5C)-c5cc(cc(C)n5)C(=O)/N=C/2N3)C4)CCN1C1CCN(c2ccc(C3CCC(=O)NC3=O)nc2C)CC1` (stereo partly shown) [Example 109] are 81.0 and 90.4.
As to `Cc1cc2cc(n1)-c1cnn(C)c1OC[C@H]1C[C@@H](CN3/C(=N/C2=O)Nc2ccc(N4CCN(C5CCN(c6cnc(C7CCC(=O)NC7=O)c(F)c6)CC5)CC4)cc23)C1` (single isomer, unassigned) [Example 38, 3-(5-(4-(4-((7^1s,7^3s,E)-1^1,2^6-dimethyl-3-oxo-5^2,5^3-dihydro-1^1H,5^1H-9-oxa-4-aza-5(2,1)-benzo[d]imidazola-2(2,4)-pyridina-1(4,5)-pyrazola-7(1,3)-cyclobutanacyclononaphane-5^6-yl)piperazin-1-yl)piperdine-1-yl)-3-fluoropyridin-2-yl)piperidine 6-dione], the “Degradation H1975 # 28 DTC” value in assay [1] amounted to 78.4. Besides, in assay [2], the “Degradation H1975 # 25-LTC” value was 81.4.
For `Cc1cc2cc(n1)-c1cnn(C)c1OC[C@H]1C[C@@H](CN3/C(=N/C2=O)Nc2ccc(N4CCN([C@@H]5CCN(c6ccc(C7CCC(=O)NC7=O)nc6C)C[C@@H]5F)CC4)cc23)C1` (stereo partly drawn) [Example 62, 3-(5-((3S,4R)-4-(4-((7^1s,7^3S,E)-1^1,2^6-dimethyl-3-oxo-5^2,5^3-dihydro-1^1H,5^1H-9-oxa-4-aza-5(2,1)-benzo[d]imidazola-2(2,4)-pyridina-1(4,5)-pyrazola-7(1,3)-cyclobutanacyclononaphane-5^6-yl)piperazin-1-yl)-3-fluoropiperidin-1-yl)-6-methylpyridin-2-yl)piperidine-2,6-dione] the same measures were 89.1 and 91.5.
For `Cc1cc2cc(n1)-c1cnn(C)c1OC[C@H]1C[C@@H](CN3/C(=N/C2=O)Nc2ccc(N4CCN(CCc5cc(F)c([C@H]6CCC(=O)NC6=O)c(F)c5)CC4=O)cc23)C1` [Example 9, (R)-3-(4-(2-(4-((7^1s,7^3s,E)-1^1,2^6-dimethyl-3-oxo-5^2,5^3-dihydro-1^1H,5^1H-9-oxa-4-aza-5(2,1)-benzo[d]imidazola-2(2,4)-pyridina-1(4,5)-pyrazola-7(1,3)-cyclobutanacyclononaphane-5^6-yl)-3-oxopiperazin-1-yl)ethyl)-2,6-difluorophenyl)piperidine-2,6-dione] the same measures were 90.9 and 88.5.
For the compound `Cc1cc2cc(n1)-c1cnn(C)c1OC[C@H]1C[C@@H](CN3/C(=N/C2=O)Nc2ccc(N4CCC(N5CCN(c6cnc(C7CCC(=O)NC7=O)cc6C)CC5)CC4)cc23)C1` (stereo partly shown) [Example 5, 3-(5-(4-(1-((7^1s,7^3s,E)-1^1,2^6-dimethyl-3-oxo-5^2,5^3-dihydro-1^1H,5^1H-9-oxa-4-aza-5(2,1)-benzo[d]imidazola-2(2,4)-pyridina-1(4,5)-pyrazola-7(1,3)-cyclobutanacyclononaphane-5^6-yl)piperidin-4-yl)piperazin-1-yl)-4-methylpyridin-2-yl)piperidine-2,6-dione], the “Degradation H1975 # 28 DTC” value in assay [1] is 92.2. In addition, the “Degradation H1975 # 25-LTC” value in assay [2] came to 92.9.
Regarding `Cc1cc2cc(n1)-c1cnn(C)c1OC[C@H]1C[C@@H](CN3/C(=N/C2=O)Nc2ccc(N(C)CC4CN(C5CCN(c6ccc(C7CCC(=O)NC7=O)nc6C)CC5)C4)cc23)C1` (stereo partly shown) [Example 114, 3-(5-(4-(3-((((7^1s,7^3s,E)-1^1,2^6-dimethyl-3-oxo-5^2,5^3-dihydro-1′H,5^1H-9-oxa-4-aza-5(2,1)-benzo[d]imidazola-2(2,4)-pyridina-1(4,5)-pyrazola-7(1,3)-cyclobutanacyclononaphane-5^6-yl)(methyl)amino)methyl)azetidin-1-yl)piperidin-1-yl)-6-methylpyridin-2-yl)piperidine-2,6-dione], the “Degradation H1975 # 28 DTC” value in assay [1] was 79.0. In assay [2], the “Degradation H1975 # 25-LTC” value was 86.8.
Regarding `Cc1cc2cc(n1)-c1cnn(C)c1OC[C@H]1C[C@@H](CN3/C(=N/C2=O)Nc2ccc(N4CCN(CCc5ccc(C6CCC(=O)NC6=O)nc5C)CC4)cc23)C1` (stereo partly shown) [Example 82, 3-(5-(2-(4-((7^1s,7^3s,E)-1^1,2^6-dimethyl-3-oxo-5^2,5^3-dihydro-1^1H,5^1H-9-oxa-4-aza-5(2,1)-benzo[d]imidazola-2(2,4)-pyridina-1(4,5)-pyrazola-7(1,3)-cyclobutanacyclononaphane-5^6-yl)piperazin-1-yl)ethyl)-6-methylpyridin-2-yl)piperidine-2,6-dione], in assay [1], the “Degradation H1975 # 28 DTC” value is 79.5. In addition, the “Degradation H1975 # 25-LTC” value in assay [2] was 90.3.
